This is an account of results in PMC8312988 (Medicinal chemistry research : an international journal for …, 2015).

Some results are limits rather than exact numbers.

Data set [1] is described as follows: Cytotoxicity assay, Vero cells. The data set is classed as cell-based, African green monkey. To be noted: African green monkey, Vero cells (kidney).
A further data set can be described thus: in vitro. The following applies: human, CEM cells (lymphoblastic cell line).
Data set [2] is described as follows: Cytotoxicity assay, PBM cells. The data set is classed as cell-based, Human. The following applies: human.
A further data set concerns PBM cells. Briefly: Cytotoxicity assay, PBM cells. The following applies: for IC50: read-out: Cytotoxicity IC50 PBM, 5-day incubation. The data set is classed as cell-based, Human.
A further data set deals with CEM cells. To be noted: for IC50: read-out: Cytotoxicity IC50 CEM, 5-day incubation.
A further data set has as its system Vero cells. Briefly: Cytotoxicity assay, Vero cells. The data set is classed as cell-based, African green monkey. The following applies: read-out: Cytotoxicity IC50 Vero; Vero cells, 5-day incubation.
Another data set relates to PBM, CEM and Vero cells. Briefly: Cytotoxicity across all cell lines used. Type of data set: cell-based.
For another data set, the system named is HIV-1. Type of data set: cell-based. The following applies: for EC50: read-out: Anti-HIV-1 activity in PBM cells EC50; for EC90: read-out: Anti-HIV-1 activity in PBM cells EC90.

In general, IC50 refers to the point on the concentration scale where inhibition reaches its midpoint. On to `COc1cc(C=NNC(=O)CN2c3c(n[nH]c3-c3cccc(Cl)c3)-c3ccccc3S2(=O)=O)cc(OC)c1OC` [Compound 5j, 2-[3-(3-chlorophenyl)-5,5-dioxidobenzo[e]pyrazolo[4,3-c] [1,2]thiazin-4(2H)-yl]-N′-(3,4,5-trimethoxybenzylidene) acetohydrazide], for which the IC50 at 5 day in data set [1] was found to be 14.3 µM; in “in vitro” it was 31.6 µM; in data set [2], 11 µM.

For `O=C(CN1c2c(n[nH]c2-c2cccc(Cl)c2)-c2ccccc2S1(=O)=O)NN=Cc1cccc([N+](=O)[O-])c1` [Compound 5l, 2-[3-(3-Chlorophenyl)-5,5-dioxidobenzo[e]pyrazolo[4,3-c] [1,2]thiazin-4(2H)-yl]-N′-(3-nitrobenzylidene)acetohydrazide], the IC50 at 5 day in data set [1] is 27 µM; in the data set “in vitro”, 47.3 µM; in data set [2], more than 100 µM. The “Toxicity in PBM cells (in words)” value with PBM cells is reported as “not toxic”.

Turning to `O=C(CN1c2c(n[nH]c2-c2cccc(Cl)c2)-c2ccccc2S1(=O)=O)NN=Cc1cccc(Br)c1` [Compound 5d, N′-(3-Bromobenzylidene)-2-[3-(3-chlorophenyl)-5,5-dioxidobenzo[e]pyrazolo[4,3-c][1,2]thiazin-4(2H)-yl]acetohydrazide], the figures for the IC50 at 5 day (in data set [1]; in the data set “in vitro”; in data set [2]) were more than 100 µM, 12.9 µM and 22.9 µM, respectively.

Turning to `COc1cccc(C=NNC(=O)CN2c3c(n[nH]c3-c3cccc(Cl)c3)-c3ccccc3S2(=O)=O)c1` [Compound 5h, 2-[3-(3-Chlorophenyl)-5,5-dioxidobenzo[e]pyrazolo[4,3-c] [1,2]thiazin-4(2H)-yl]-N′-(3-methoxybenzylidene)acetohydrazide], the half-maximal inhibitory concentration (IC50) at 5 day in data set [1] was determined as 22.3 µM; in “in vitro”, 31.6 µM; in data set [2] it was 19 µM.

Turning to `COC(=O)CN1C(C(=O)c2cccc(Cl)c2)=C(O)c2ccccc2S1(=O)=O` [Compound 3, Methyl 2-[3-(3-chlorobenzoyl)-4-hydroxy-1,1-dioxido-2H-benzo[e][1,2]thiazin-2-yl]acetate], the half-maximal inhibitory concentration (IC50) at 5 day in data set [1] came out at 40.6 µM; in the data set “in vitro”, 22.4 µM; in data set [2], 57.3 µM.

For the compound `O=C(CN1c2c(n[nH]c2-c2cccc(Cl)c2)-c2ccccc2S1(=O)=O)NN=Cc1c(Cl)cccc1Cl` [Compound 5g, 2-[3-(3-Chlorophenyl)-5,5-dioxidobenzo[e]pyrazolo[4,3-c] [1,2]thiazin-4(2H)-yl]-N′-(2,6-dichlorobenzylidene)acetohydrazide], the 50% inhibitory concentration (IC50) at 5 day in data set [1] amounted to 60.5 µM; in the data set “in vitro”, 12.5 µM; in data set [2], 52.5 µM. In addition, the “Toxicity to CEM cell line (in words)” value with CEM cells was “toxic to only CEM cell line”. For the same compound, the “Toxicity in PBM cells (in words)” value in the data set on PBM cells is recorded as “not toxic”.

Regarding `O=C(CN1c2c(n[nH]c2-c2cccc(Cl)c2)-c2ccccc2S1(=O)=O)NN=Cc1ccc(F)cc1` [Compound 5a, 2-[3-(3-Chlorophenyl)-5,5-dioxidobenzo[e]pyrazolo[4,3-c] [1,2]thiazin-4(2H)-yl]-N′-(4-fluorobenzylidene)acetohydrazide], the values for the IC50 at 5 day (in data set [1]; in “in vitro”; in data set [2]) were 45.7 µM, 31.6 µM and 20 µM, respectively.

The term EC50 denotes the concentration that produces a half-maximal response. The EC90 is the concentration needed for an effect of 90%. For `NNC(=O)CN1c2c(n[nH]c2-c2cccc(Cl)c2)-c2ccccc2S1(=O)=O` [Compound 4], the IC50 in the data set on Vero cells is more than 100 µM. For the same compound, the IC50 with CEM cells was more than 100 µM. For the same compound, in the data set on PBM, CEM and Vero cells, the “Toxicity to all the cell lines used (in words)” value is “nontoxic”. In the data set with HIV-1, the “Anti-HIV-1 activity (in words)” value is “inactive”, the EC50 was more than 100 µM and the EC90 was more than 100 µM. Further, the IC50 in the data set with PBM cells is more than 100 µM.

As to `O=C(CN1c2c(n[nH]c2-c2cccc(Cl)c2)-c2ccccc2S1(=O)=O)NN=Cc1ccc(C(=O)O)cc1` [Compound 5n, 4-[(2-(2-(3-(3-Chlorophenyl)-5,5-dioxidobenzo[e]pyrazolo [4,3-c][1,2]thiazin-4(2H)-yl)acetyl)hydrazono)methyl]benzoic acid], the concentration for half-maximal inhibition (IC50) at 5 day turned out to be 18.2 µM in data set [1], 13.4 µM in “in vitro” and 17.2 µM in data set [2].

For the compound `O=C(CN1c2c(n[nH]c2-c2cccc(Cl)c2)-c2ccccc2S1(=O)=O)NN=Cc1ccc([N+](=O)[O-])cc1` [Compound 5m, 2-[3-(3-Chlorophenyl)-5,5-dioxidobenzo[e]pyrazolo[4,3-c] [1,2]thiazin-4(2H)-yl]-N′-[4-nitrobenzylidene]acetohydrazide], the concentration for half-maximal inhibition (IC50) at 5 day in data set [1] amounted to 21.2 µM; in “in vitro”, 2.8 µM; in data set [2] it was 16.7 µM.

Consider `O=C(C1=C(O)c2ccccc2S(=O)(=O)N1)c1cccc(Cl)c1` [Compound 2, (3-chlorophenyl)(4-hydroxy-1,1-dioxido-2H-benzo[e] [1,2]thiazin-3-yl)methanone], for which the results for the IC50 at 5 day (in data set [1]; in “in vitro”; in data set [2]) were more than 100 µM, 26.7 µM and more than 100 µM, respectively.

As to `O=C(CN1c2c(n[nH]c2-c2cccc(Cl)c2)-c2ccccc2S1(=O)=O)NN=Cc1ccc(Cl)cc1` [Compound 5c, N′-(4-Chlorobenzylidene)-2-[3-(3-chlorophenyl)-5,5-dioxidobenzo[e]pyrazolo[4,3-c][1,2]thiazin-4(2H)-yl]acetohydrazide], the 50% inhibitory concentration (IC50) at 5 day in data set [1] amounted to 19.2 µM; in “in vitro”, 2.5 µM; in data set [2], 12.8 µM. For the same compound, in the data set with PBM, CEM and Vero cells, the “Toxicity to all the cell lines used (in words)” value was “highly toxic”. Also, the EC50 in the data set with HIV-1 came to 4 µM.

Consider `COc1ccc(C=NNC(=O)CN2c3c(n[nH]c3-c3cccc(Cl)c3)-c3ccccc3S2(=O)=O)c(OC)c1OC` [Compound 5i, 2-[3-(3-Chlorophenyl)-5,5-dioxidobenzo[e]pyrazolo[4,3-c] [1,2]thiazin-4(2H)-yl]-N′-(2,3,4-trimethoxybenzylidene) acetohydrazide], for which the IC50 at 5 day came to 29 µM in data set [1], 31.6 µM in “in vitro” and 21.8 µM in data set [2]. Moreover, the EC50 in the data set on HIV-1 was 4.2 µM.

Turning to `O=C(CN1C(=O)c2ccccc2S1(=O)=O)c1cccc(Cl)c1` [Compound 1, N-3′-Chlorophenacylsaccharine], the IC50 in the data set with Vero cells is 54.8 µM; in the data set on CEM cells, more than 100 µM; in the data set on PBM cells, more than 100 µM. For the same compound, the EC50 with HIV-1 was more than 100 µM. In the data set on HIV-1, the EC90 is more than 100 µM.

Turning to `O=C(CN1c2c(n[nH]c2-c2cccc(Cl)c2)-c2ccccc2S1(=O)=O)NN=Cc1ccc(Br)cc1` [Compound 5e, N′-(4-Bromobenzylidene)-2-(3-(3-chlorophenyl)-5,5-dioxidobenzo[e]pyrazolo[4,3-c][1,2]thiazin-4(2H)-yl)acetohydrazide], the half-maximal inhibitory concentration (IC50) at 5 day in data set [1] was determined as 46.5 µM; in the data set “in vitro”, 5 µM; in data set [2], 66.7 µM. Besides, in the data set on PBM cells, the “Toxicity in PBM cells (in words)” value is listed as “not toxic”.

As to `O=C(CN1c2c(n[nH]c2-c2cccc(Cl)c2)-c2ccccc2S1(=O)=O)NN=Cc1ccccc1[N+](=O)[O-]` [Compound 5k, 2-[3-(3-Chlorophenyl)-5,5-dioxidobenzo[e]pyrazolo[4,3-c] [1,2]thiazin-4(2H)-yl]-N′-(2-nitrobenzylidene)acetohydrazide], the 50% inhibitory concentration (IC50) at 5 day (in data set [1]; in “in vitro”; in data set [2]) was more than 100 µM in each case. The “Toxicity to all the cell lines used (in words)” value in the data set with PBM, CEM and Vero cells is “no toxicity”. Further, the “Anti-HIV-1 activity (in words)” value in the data set with HIV-1 is “no inhibition”.

`O=C(CN1c2c(n[nH]c2-c2cccc(Cl)c2)-c2ccccc2S1(=O)=O)NN=Cc1cccc(Cl)c1` [Compound 5b, N′-(3-Chlorobenzylidene)-2-[3-(3-chlorophenyl)-5,5-dioxidobenzo[e]pyrazolo[4,3-c][1,2]thiazin-4(2H)-yl]acetohydrazide]: the values for the half-inhibitory concentration (IC50) at 5 day (in data set [1]; in “in vitro”; in data set [2]) were 16.4 µM, 31.6 µM and 36.3 µM, respectively.

With `CN(C)c1ccc(C=NNC(=O)CN2c3c(n[nH]c3-c3cccc(Cl)c3)-c3ccccc3S2(=O)=O)cc1` [Compound 5o, 2-[3-(3-Chlorophenyl)-5,5-dioxidobenzo[e]pyrazolo[4,3-c] [1,2]thiazin-4(2H)-yl]-N′-[4-(dimethylamino)benzylidene] acetohydrazide], the IC50 at 5 day in data set [1] was 10.4 µM; in “in vitro”, 2.5 µM; in data set [2], 23.7 µM.

As to `O=C(CN1c2c(n[nH]c2-c2cccc(Cl)c2)-c2ccccc2S1(=O)=O)NN=Cc1ccc(Cl)cc1Cl` [Compound 5f, 2-[3-(3-Chlorophenyl)-5,5-dioxidobenzo[e]pyrazolo[4,3-c] [1,2]thiazin-4(2H)-yl]-N′-(2,4-dichlorobenzylidene)acetohydrazide], the IC50 at 5 day was determined as 84.8 µM in data set [1], 13.8 µM in the data set “in vitro” and 80.7 µM in data set [2]. Besides, in the data set on CEM cells, the “Toxicity to CEM cell line (in words)” value is “toxic to only CEM cell line”. Further, the “Toxicity in PBM cells (in words)” value with PBM cells is “not toxic”.
